The source of these data is US10350177B2, “Antibacterial S-heterosubstituted disulfides” (priority 2007, dated 2019).

Converted amounts (≈) assume the structure as drawn.

What all share (type): cell-based
In assay [1] the test system is Methicillin Resistant Staphylococcus aureus (ATCC-919). Kind of assay: MIC by agar dilution against methicillin-resistant Staphylococcus aureus. The note with it: for MIC: ATCC 919 / MRSA. On the technique in general: Agar dilution tests growth on a series of plates holding different concentrations.
Assay [2] concerns Staphylococcus aureus (ATCC-849). Kind of assay: MIC by agar dilution against Staphylococcus aureus. The note with it: for MIC: ATCC849.
Assay [3] deals with Live Vaccine Strain of Francisella tularensis. Description: microbe, parasite or virus in culture.

For the compound `CC(C)NSSNC(C)C` [VII], the MIC in assay [1] was 32 µg/mL (≈ 177 µM); in assay [2], 32 µg/mL (≈ 177 µM); in assay [3], 2 µg/mL (≈ 11.1 µM).

For the compound `CCC(C)SSSSC(C)CC` (stereo not drawn) [XIV], the MIC in assay [1] came out at 64 µg/mL (≈ 264 µM); in assay [2] it was 32 µg/mL (≈ 132 µM); in assay [3], 16 µg/mL (≈ 66 µM).

`CC(C)OSSOC(C)C` [II]: the results for the MIC in assay [1], in assay [2] and in assay [3] were 0.5 µg/mL (≈ 2.74 µM), 1 µg/mL (≈ 5.49 µM) and 4 µg/mL (≈ 21.9 µM), respectively.

Consider `CCN(CC)SSN(CC)CC` [XVII], for which the MIC in assay [1] came to 2 µg/mL (≈ 9.6 µM); in assay [2], 2 µg/mL (≈ 9.6 µM); in assay [3], 16 µg/mL (≈ 76.8 µM).

As to `CCCCOSSOCCCC` [III], the MIC worked out at 8 µg/mL (≈ 38 µM) in assay [1], 0.25 µg/mL (≈ 1.19 µM) in assay [2] and 4 µg/mL (≈ 19 µM) in assay [3].

On to `c1ccc(NSSNc2ccccc2)cc1` [X], for which the MIC in assay [1] was 4 µg/mL (≈ 16.1 µM); in assay [2] it was 4 µg/mL (≈ 16.1 µM); in assay [3], 0.5 µg/mL (≈ 2.01 µM).

Regarding `c1ccc(SSSSc2ccccc2)cc1` [XV], the results for the MIC in assay [1], in assay [2] and in assay [3] were 8 µg/mL (≈ 28.3 µM), 8 µg/mL (≈ 28.3 µM) and 2 µg/mL (≈ 7.08 µM), respectively.

Regarding `CCCCSSSSCCCC` [XIII], the results for the MIC in assay [1], in assay [2] and in assay [3] were 32 µg/mL (≈ 132 µM), 64 µg/mL (≈ 264 µM) and 4 µg/mL (≈ 16.5 µM), respectively.

Consider `CC1(C)S[C@@H]2[C@H](NC(=O)Cc3ccccc3)C(=O)N2[C@H]1C(=O)O` [Penicillin G, reference compound], for which the “MIC MRSA” value in assay [1] came out at 16 µg/mL (≈ 47.8 µM). Further, the “MIC S.A.” value in assay [2] is 0.125 µg/mL (≈ 0.374 µM).

Turning to `CCN(SSN(C(C)C)C(C)C)C(C)C` [XVIII], the MIC in assay [1] was found to be 1 µg/mL (≈ 3.99 µM); in assay [2], 2 µg/mL (≈ 7.98 µM); in assay [3] it was 32 µg/mL (≈ 128 µM).

As to `O=C(O)c1cn(C2CC2)c2cc(N3CCNCC3)c(F)cc2c1=O` [Ciprofloxacin, reference compound], the MIC in assay [3] came out at 16 µg/mL (≈ 48.3 µM).

`c1ccc(OSSOc2ccccc2)cc1` [V]: the MIC in assay [1] was determined as 2 µg/mL (≈ 7.99 µM); in assay [2] it was 2 µg/mL (≈ 7.99 µM); in assay [3] it was 1 µg/mL (≈ 3.99 µM).

Consider `CCCOSSOCCC` [I], for which the MIC was 32 µg/mL (≈ 176 µM) in assay [1], 32 µg/mL (≈ 176 µM) in assay [2] and 16 µg/mL (≈ 87.8 µM) in assay [3].

With `CCCCNSSNCCCC` [VIII], the MIC in assay [1] turned out to be 32 µg/mL (≈ 154 µM); in assay [2], 8 µg/mL (≈ 38.4 µM); in assay [3], 4 µg/mL (≈ 19.2 µM).

In the case of `CN(C)SSN(C)C` [XVI], the MIC amounted to 0.5 µg/mL (≈ 3.28 µM) in assay [1], 0.25 µg/mL (≈ 1.64 µM) in assay [2] and 8 µg/mL (≈ 52.5 µM) in assay [3].

For `CC(C)SSSSC(C)C` [XII], the MIC is 32 µg/mL (≈ 149 µM) in assay [1], 32 µg/mL (≈ 149 µM) in assay [2] and 8 µg/mL (≈ 37.3 µM) in assay [3].

For `CCCNSSNCCC` [VI], the MIC in assay [1] was 4 µg/mL (≈ 22.2 µM); in assay [2], 8 µg/mL (≈ 44.4 µM); in assay [3] it was 16 µg/mL (≈ 88.7 µM).

In the case of `C=CCN(CC=C)SSN(CC=C)CC=C` [XIX], the results for the MIC in assay [1], in assay [2] and in assay [3] were 0.5 µg/mL (≈ 1.95 µM), 1 µg/mL (≈ 3.9 µM) and 16 µg/mL (≈ 62.4 µM), respectively.

With `CCCSSSSCCC` [XI], the MIC in assay [1] was 32 µg/mL (≈ 149 µM); in assay [2], 32 µg/mL (≈ 149 µM); in assay [3] it was 1 µg/mL (≈ 4.66 µM).

`CC(C)CN(CC(C)C)SSN(CC(C)C)CC(C)C` [XX]: the MIC is 16 µg/mL (≈ 49.9 µM) in assay [1], 16 µg/mL (≈ 49.9 µM) in assay [2] and 1 µg/mL (≈ 3.12 µM) in assay [3].

In the case of `CCC(C)NSSNC(C)CC` (stereo not drawn) [IX], the MIC in assay [1] is 16 µg/mL (≈ 76.8 µM); in assay [2], 16 µg/mL (≈ 76.8 µM); in assay [3] it was 8 µg/mL (≈ 38.4 µM).

For `CCC(C)OSSOC(C)CC` (stereo not drawn) [IV], the MIC in assay [1] worked out at 8 µg/mL (≈ 38 µM); in assay [2], 16 µg/mL (≈ 76.1 µM); in assay [3] it was 16 µg/mL (≈ 76.1 µM).
